The subject of data set [1] is dendrites of hippocampal neurons. Briefly: Time-course of detection of newly synthesized proteins in dendrites. The data set is classed as cell-based, rat. Here is the method:
(§1) Dissociated hippocampal neuron cultures were prepared from newborn rat pups (PO) as outlined in (Banker and Goslin, 1990), Neurons were plated at a density of 15,000-45,000 cells/cm^2 onto poly-D-lysine coated cell culture dishes or onto poly-D-lysine and growth factor reduced matrigel (BD Biosciences) coated polycarbonate nets with a pore size of 3 μm (Transwell, Corning) for the preparation of isolated dendrites. The cultures were maintained and allowed to mature in growth medium (Neurobasal-A supplemented with B27 and GlutaMAX-1) for 14 to 21 days before use. The use of this growth medium suppressed glial proliferation, which was even more reduced by application of Ara-C (5 μM final concentration). To supplement glial neurotrophic factors, 25% conditioned growth media from glial and cortical cultures were added to the growth media. Isolated dendrites were obtained from Transwell cultures by removing the cell body layer with a sterile cell lifter after change to HBS. For immunolabeling after AHA-incorporation and cycloaddition with BiotinCyclooctyne, neurons are fixed at room temperature with 4% paraformaldehyde for 20 minutes. Fixed cultures are then treated sequentially with PBS, blocking solution (0.2% Triton X-100, 2 mg/ml BSA, 5% Sucrose, 10% normal horse serum in PBS), primary Ab in blocking solution at 4° C. overnight, PBS-Tx (0.2% Triton X-100 in PBS), Alexa488- or Alexa568-conjugated secondary Ab in blocking solution, PBS-Tx and PBS. Immunostained specimens are imaged in PBS with an Olympus confocal microscope or two-photon microscope through either a 10× or a 63× oil-immersion lens. Alexa568 is excited at 543 nm and Alexa488 at 488 nm. Images are recorded through standard emission filters at contrast settings for which the crossover between the two channels is negligible.
Representative straightened dendrites of neurons (DIV 16) incubated with 4 mM AHA, 4 mM Methionine (Met) or AHA plus 40 μM anisomycin (Aniso) for time points indicated. The lookup table indicates fluorescence intensity. The left end is the proximal end, the right end is the distal end. […]

For data set [2], the system named is dissociated hippocampal neurons. Briefly: Fluorescent tagging (TRA/FLA tag) of AHA- or HPG-incorporated proteins in neurons. It is filed as cell-based, rat. Conditions: 1 hour; for incorporation into neurons (fluorescent tag detection): DIV 17, 4 mM, 1 μM TRA or FLA tag. The method, then: as §1
In certain embodiments of the invention, two or more pairs of different non-natural amino acid/labeling reagents may be used to simultaneously or sequentially label the newly synthesized proteins. […]

Data set [3] relates to HEK293 cells. Briefly: Specificity of AHA labelling of newly synthesized proteins, anti-biotin Western blot after [3+2] cycloaddition. The data set is classed as cell-based. The conditions noted are these: 2 hrs with AHA plus inhibitor. Here is the method: In embodiments using [3+2] Cycloaddition, the following exemplary protocol may be used. Briefly, AHA, Biotin-PEO-Propargylamide and the triazole ligand were prepared as described previously. The tandem featured alkyne tag was synthesized by GenScript Corporation. Biotin-Cyclooctyne is a generous gift from Carolyn Bertozzi. D10-L-leucine was purchased from Sigma. In all culture experiments, growth medium was removed from HEK293 cells, whole neuronal cultures or isolated dendrites were replaced with HEPES-buffered solution (HBS) with 2.86 mM AHA, and 2.86 mM methionine for control experiments. After incubation at 37° C., 5% CO2, cells were washed with PBS-MC (1 mM MgCl2, 0.1 mM CaCl2 in PBS) to remove excess amounts of AHA and methionine. SNS and other biochemical fractions are incubated with 2.86 mM AHA or 2.86 mM methionine under agitation at 37° C. and washed in StimBuffer after incubation. […]
(§2) To show the specificity of this technique for the detection of newly synthesized proteins, HEK293 cells were incubated for 2 hrs with AHA in the presence or absence of a protein synthesis inhibitor (Anisomycin or Cycloheximide). […] The potential for increased protein degradation was measured by examining the ubiquitin signal strength on a Western blot from whole lysates of HEK293 cells, which were treated with AHA, methionine or incubation buffer for two hours.

The subject of data set [4] is mammalian cells, primary neuronal cell cultures. Briefly: General properties of AHA in cell cultures (previous experiments and literature). The data set is classed as cell-based.
The test system is the same in data set [5]. The conditions noted are these: Dieterich et al. 2006, cited from earlier work.
Data set [6] concerns hippocampal dysembryoplastic neuroepithelial tumor (DNT) tissue. Briefly: AHA labelling of newly synthesized proteins in freshly dissected DNT tumor versus control tissue, anti-biotin Western blot. It is filed as cell-based, human. Conditions: 4 mM AHA, 1 hour, 37° C., equal total protein; control lateral temporal cortex of the same patient. The method, then:
FIG. 5: Detection of newly synthesized proteins in cells of acutely dissected human brain tissue. Tumor and control cells were trypsinized and triturated before incubation with 4 mM AHA for 1 hour at 37° C. After cell lysis and Cu(I)-catalyzed tagging with a biotin-FLAG-alkyne tag, samples were subjected to Neutravidin-purification to separate newly synthesized proteins from pre-existing proteins, and analyzed on a Western blot using an anti-biotin antibody. Same total protein amounts were used for both tumor and control tissue. Input: sample before affinity purification; Supernatant: unbound material after Neutravidin-purification; NA: Neutravidin.
Having obtained the proper conditions for labeling dissected tissues, Applicants repeated the experiments in freshly dissected human DNT tumor tissues and control tissues. […] As a control, non-diseased tissue (lateral temporal cortex) from the same patient was analyzed along with the DNT tissue.
Freshly dissected tumor and control tissue were obtained in operating room. To ensure optimal uptake of AHA, both tissues were trypsinized and triturated into single cells before treatment with AHA and deuterated 1-lysine. Incubation with AHA was done at 37° C. under constant agitation. The tissues were subsequently lysed in SDS and Tx-100 buffer, and the newly synthesized proteins were Neutravidin (NA)-purified. […]

Data set [7] concerns HEK293 cells. Briefly: Ubiquitin signal on Western blot of whole lysates (protein degradation/misfolding). The data set is classed as cell-based. Conditions: HEK293 cells treated two hours, compared to buffer or methionine controls. Here is the method: as §2, with “Cycloheximide). After incubation, cells were lysed and subjected to [3+2]cycloaddition with the biotin-bearing alkyne-linker Biotin-PEO-Propargylamide, followed by Western blot analysis with an anti-Biotin-antibody.” for “Cycloheximide).”

The subject of the next data set is acute hippocampal slices. Briefly: AHA incorporation in acute hippocampal slices, Biotin-PEO tagging, Neutravidin, Western blot. The data set is classed as cell-based, rat. The conditions noted are these: 400 μm slices, varying concentrations of AHA, 1.5 hours.
Data set [8] deals with Dissociated hippocampal cultured neurons. Description: Toxicity of AHA by gross morphology of GFP-expressing neurons. It is filed as cell-based, rat. The conditions noted are these: 12 DIV neurons, 2 hrs, equimolar AHA or methionine control.
Experimental: Dissociated hippocampal neuron cultures were prepared from newborn rat pups (PO) as outlined in (Banker and Goslin, 1990), Neurons were plated at a density of 15,000-45,000 cells/cm^2 onto poly-D-lysine coated cell culture dishes or onto poly-D-lysine and growth factor reduced matrigel (BD Biosciences) coated polycarbonate nets with a pore size of 3 μm (Transwell, Corning) for the preparation of isolated dendrites. The cultures were maintained and allowed to mature in growth medium (Neurobasal-A supplemented with B27 and GlutaMAX-1) for 14 to 21 days before use. […] To supplement glial neurotrophic factors, 25% conditioned growth media from glial and cortical cultures were added to the growth media. Isolated dendrites were obtained from Transwell cultures by removing the cell body layer with a sterile cell lifter after change to HBS. For immunolabeling after AHA-incorporation and cycloaddition with BiotinCyclooctyne, neurons are fixed at room temperature with 4% paraformaldehyde for 20 minutes. […] Images are recorded through standard emission filters at contrast settings for which the crossover between the two channels is negligible. […]

Entries after “also recorded” stand apart in the source; their conditions may differ. Where two headings read alike, the source gives them in different places. Bounds are passed on as bounds.

Experimental for acute hippocampal slices: These slices were recovered in artificial cerebrospinal fluid (ACSF) for at least 1 hour on organotypic membranes. Upon recovery, the slices were incubated with either a mixture of ^35S Met and ^35S Cys, or varying concentrations of AHA for 1.5 hours. FIG. 3C is a Western blot analysis for AHA-incorporated proteins from acute hippocampal slices. After AHA incorporation and slice homogenization, the homogenates were subjected to [3+2]-cycloaddition with a Biotin-PEO tag, and proteins incorporating AHA (and thus subsequently labeled by the Biotin-PEO labeling moiety) were concentrated using Neutravidin-conjugated beads (which binds the Biotin-PEO labeling moiety).

With `COc1ccc(C[C@H]2NC[C@H](O)[C@H]2OC(C)=O)cc1` [Anisomycin, reference compound], in data set [1] (40 μM with AHA), the “effect of the protein synthesis inhibitor on AHA labelling of dendrites” value is recorded as “completely inhibited”. The “effect of the protein synthesis inhibitor on AHA incorporation” value in data set [2] (40 μM with 4 mM AHA) is listed as “completely abolished AHA incorporation”. Besides, the “anti-biotin signal of AHA-labelled proteins in the presence of the protein synthesis inhibitor” value with HEK293 cells [3] is reported as “No signal was detected”.
For `C[C@@H]1C[C@@H]([C@H](O)CC2CC(=O)NC(=O)C2)C(=O)[C@@H](C)C1` [Cycloheximide], the “anti-biotin signal of AHA-labelled proteins in the presence of the protein synthesis inhibitor” value in the data set on HEK293 cells [3] is “No signal was detected”.
Turning to `[N-]=[N+]=NCC[C@H](N)C(=O)O` [AHA, azidohomoalanine], in [4], the cell toxicity result is “not toxic even in primary neuronal cell cultures; also recorded: undetected cell toxicity” and the membrane permeability result was “excellent membrane permeability”. The “protein degradation upon introduction of AHA” value in data set [4] (E. coli and mammalian cells) is on record as “no evidence of increased protein degradation”. For the same compound, the “global protein synthesis rates” value in data set [5] is reported as “no evidence that AHA exposure alters global protein synthesis rates”. In [5] (compared to buffer or methionine controls), the “ubiquitination of total protein” value is on record as “no increase in the ubiquitination”. The cell toxicity result in [5] (incl. primary cultured postnatal neurons) is listed as “not toxic to cells”. Also, the “level of protein synthesis by AHA labelling, tumor versus non-diseased tissue” value in data set [6] was “substantially higher in cells from tumor tissue”. For the same compound, in data set [1] (DIV 16, 4 mM AHA), the “time at which AHA incorporation was visible” value was 10 min; the “time by which whole neuron soma and dendrite was filled with AHA-labeled proteins” value is at most 40 min. Besides, the “ubiquitination of total protein” value in the data set with HEK293 cells [7] is reported as “No increased ubiquitination”. In addition, the “incorporation into newly synthesized proteins (biotinylated proteins after Neutravidin)” value in the data set on acute hippocampal slices is listed as “vast enrichment of biotinylated proteins”. Moreover, the “incorporation into neurons (fluorescent tag detection)” value in data set [2] is on record as “successfully incorporated”. In [8], the “toxicity to neurons (gross morphology, GFP expression in the dendritic arbor)” value is listed as “not toxic to neurons”.
As to `C#CCCC(N)C(=O)O` (stereo not drawn) [HPG, Homopropargylglycine], the “incorporation into neurons (fluorescent tag detection)” value in data set [2] is on record as “successfully incorporated”.

The record behind these values is patent US20100247433A1, “Use of non-canonical amino acids as metabolic markers for rapidly-dividing cells” (California Institute of Technology, priority 2005, published 2010).
